Source: patent US8841450B2, “Compounds useful as inhibitors of ATR kinase” (Vertex Pharmaceuticals Incorporated, priority 2011, dated 2014)

Target: ATR kinase (Homo sapiens (Human), UniProt Q13535)
Assay: ATR Inhibition Assay (radioactive-phosphate incorporation)
Assay type: biochemical
Conditions: Ki(app); 5 nM full-length ATR, 10 μM [γ-33P]ATP, 800 μM target peptide, 25° C.
Protocol: Compounds were screened for their ability to inhibit ATR kinase using a radioactive-phosphate incorporation assay. Assays were carried out in a mixture of 50 mM Tris/HCl (pH 7.5), 10 mM MgCl2 and 1 mM DTT. Final substrate concentrations were 10 μM [γ-33P]ATP (3mCi 33P ATP/mmol ATP, Perkin Elmer) and 800 μM target peptide (ASELPASQPQPFSAKKK).
Assays were carried out at 25° C. in the presence of 5 nM full-length ATR. An assay stock buffer solution was prepared containing all of the reagents listed above, with the exception of ATP and the test compound of interest. 13.5 μL of the stock solution was placed in a 96 well plate followed by addition of 2 μL of DMSO stock containing serial dilutions of the test compound (typically starting from a final concentration of 15 μM with 3-fold serial dilutions) in duplicate (final DMSO concentration 7%). The plate was pre-incubated for 10 minutes at 25° C. and the reaction initiated by addition of 15 μL [γ-33P]ATP (final concentration 10 μM).
The reaction was stopped after […] by the addition of 30 μL 0.1M phosphoric acid containing 2 mM ATP. […]
After removing mean background values for all of the data points, Ki(app) data were calculated from non-linear regression analysis of the initial rate data using the Prism software package (GraphPad Prism version 3.0cx for Macintosh, GraphPad Software, San Diego, Calif., USA).

Sequence of ATR kinase (Q13535 whole entry): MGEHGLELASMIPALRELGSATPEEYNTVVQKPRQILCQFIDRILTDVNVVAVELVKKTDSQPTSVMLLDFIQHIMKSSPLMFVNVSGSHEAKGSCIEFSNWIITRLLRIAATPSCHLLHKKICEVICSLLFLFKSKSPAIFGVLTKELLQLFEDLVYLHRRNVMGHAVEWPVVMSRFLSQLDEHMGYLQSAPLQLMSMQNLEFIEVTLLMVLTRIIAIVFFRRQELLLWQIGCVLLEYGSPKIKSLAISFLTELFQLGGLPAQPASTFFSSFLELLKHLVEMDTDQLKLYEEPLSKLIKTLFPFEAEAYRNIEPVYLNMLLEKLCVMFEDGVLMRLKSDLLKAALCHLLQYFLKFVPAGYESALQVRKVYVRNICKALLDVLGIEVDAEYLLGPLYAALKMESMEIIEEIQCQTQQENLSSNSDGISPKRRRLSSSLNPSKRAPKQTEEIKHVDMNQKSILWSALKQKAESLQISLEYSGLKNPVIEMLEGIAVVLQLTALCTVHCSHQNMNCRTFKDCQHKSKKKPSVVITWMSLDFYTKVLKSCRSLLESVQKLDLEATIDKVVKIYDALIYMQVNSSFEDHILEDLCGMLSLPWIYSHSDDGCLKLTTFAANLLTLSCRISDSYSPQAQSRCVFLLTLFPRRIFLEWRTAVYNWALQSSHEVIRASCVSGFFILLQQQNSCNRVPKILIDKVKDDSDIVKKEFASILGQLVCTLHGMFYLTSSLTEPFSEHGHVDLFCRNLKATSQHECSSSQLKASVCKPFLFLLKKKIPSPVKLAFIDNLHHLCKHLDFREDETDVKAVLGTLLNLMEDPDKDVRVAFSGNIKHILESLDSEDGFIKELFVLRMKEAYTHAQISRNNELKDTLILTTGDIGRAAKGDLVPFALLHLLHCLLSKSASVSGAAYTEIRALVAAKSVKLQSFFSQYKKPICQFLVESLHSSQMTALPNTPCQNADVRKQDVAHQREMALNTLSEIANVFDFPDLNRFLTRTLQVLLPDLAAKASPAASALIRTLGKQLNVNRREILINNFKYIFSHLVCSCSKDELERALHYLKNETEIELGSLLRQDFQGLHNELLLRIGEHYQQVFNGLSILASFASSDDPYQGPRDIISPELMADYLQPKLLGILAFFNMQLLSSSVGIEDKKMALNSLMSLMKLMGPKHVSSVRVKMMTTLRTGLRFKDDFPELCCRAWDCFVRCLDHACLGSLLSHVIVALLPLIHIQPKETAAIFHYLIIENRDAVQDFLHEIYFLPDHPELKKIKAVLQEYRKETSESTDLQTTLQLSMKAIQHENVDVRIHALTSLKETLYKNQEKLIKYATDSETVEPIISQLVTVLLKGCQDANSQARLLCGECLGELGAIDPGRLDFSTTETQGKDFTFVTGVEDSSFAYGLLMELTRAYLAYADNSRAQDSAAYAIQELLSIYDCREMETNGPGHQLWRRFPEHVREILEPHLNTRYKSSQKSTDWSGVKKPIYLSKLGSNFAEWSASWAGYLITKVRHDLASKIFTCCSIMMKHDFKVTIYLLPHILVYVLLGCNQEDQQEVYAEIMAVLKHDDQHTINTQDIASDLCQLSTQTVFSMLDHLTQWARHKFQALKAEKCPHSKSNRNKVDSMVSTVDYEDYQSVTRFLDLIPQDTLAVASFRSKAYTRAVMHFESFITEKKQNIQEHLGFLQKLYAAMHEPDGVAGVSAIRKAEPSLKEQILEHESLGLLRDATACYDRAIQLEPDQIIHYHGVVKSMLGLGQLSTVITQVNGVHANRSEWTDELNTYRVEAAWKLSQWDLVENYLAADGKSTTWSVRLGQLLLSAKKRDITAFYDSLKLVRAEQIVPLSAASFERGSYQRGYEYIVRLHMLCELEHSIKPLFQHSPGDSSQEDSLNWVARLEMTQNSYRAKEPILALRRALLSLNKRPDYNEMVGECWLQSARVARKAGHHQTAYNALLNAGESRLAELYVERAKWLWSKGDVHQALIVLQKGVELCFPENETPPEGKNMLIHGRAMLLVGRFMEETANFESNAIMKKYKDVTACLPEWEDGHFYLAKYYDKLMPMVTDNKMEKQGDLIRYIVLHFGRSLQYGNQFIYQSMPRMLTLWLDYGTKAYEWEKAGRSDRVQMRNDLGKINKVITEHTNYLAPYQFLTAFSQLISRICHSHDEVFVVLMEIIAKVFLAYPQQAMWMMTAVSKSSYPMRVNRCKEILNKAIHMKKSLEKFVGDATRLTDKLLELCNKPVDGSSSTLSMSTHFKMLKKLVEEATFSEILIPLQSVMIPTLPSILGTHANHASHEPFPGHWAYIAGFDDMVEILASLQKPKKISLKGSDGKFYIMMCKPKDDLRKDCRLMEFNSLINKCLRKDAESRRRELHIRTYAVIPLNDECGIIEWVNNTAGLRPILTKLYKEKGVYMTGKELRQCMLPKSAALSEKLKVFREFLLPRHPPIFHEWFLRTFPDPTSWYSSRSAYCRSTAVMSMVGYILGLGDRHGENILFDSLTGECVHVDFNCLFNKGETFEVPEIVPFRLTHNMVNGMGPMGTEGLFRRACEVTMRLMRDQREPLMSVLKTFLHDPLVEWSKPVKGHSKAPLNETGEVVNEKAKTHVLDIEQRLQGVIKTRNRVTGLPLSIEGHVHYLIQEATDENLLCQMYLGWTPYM

Ki: 16 nM
SMILES: CC(C)S(=O)(=O)c1ccc(-c2cnc(N)c(C3CC(c4ccccc4)=NO3)n2)cc1 (stereo not shown) [Compound I-1, 5-(4-(isopropylsulfonyl)phenyl)-3-(3-phenyl-4,5-dihydroisoxazol-5-yl)pyrazin-2-amine]
